Data published in BindingDB's records for doi:10.1021/jm00078a018 (Merck Research Laboratories, 1994).

Assay: Inhibition of binding of [125I]-CCK-8 to the cholecystokinin type B receptor

Row | SMILES | IC50
1 | Cc1cccc(NC(=O)NC2N=C(c3ccccc3)c3ccccc3N(Cc3ncc[nH]3)C2=O)c1 (centres undefined) [1-[1-(1H-Imidazol-2-ylmethyl)-2-oxo-5-phenyl-2,3-dihydro-1H-benzo[e][1,4]diazepin-3-yl]-3-m-tolyl-urea] | 59 nM
2 | COc1cccc(NC(=O)N[C@H]2N=C(c3ccccc3)c3ccccc3N(C)C2=O)c1 | 300 nM
3 | CCN(CC)C(=O)CN1C(=O)C(NC(=O)Nc2ccc(Cl)cc2)N=C(c2ccccc2)c2ccccc21 (centres undefined) [2-{3-[3-(4-Chloro-phenyl)-ureido]-2-oxo-5-phenyl-2,3-dihydro-benzo[e][1,4]diazepin-1-yl}-N,N-diethyl-acetamide] | 0.6 nM
4 | CN1C(=O)[C@@H](NC(=O)Nc2ccc(Cl)cc2)N=C(c2ccccc2)c2ccccc21 [1-(4-Chloro-phenyl)-3-((S)-1-methyl-2-oxo-5-phenyl-2,3-dihydro-1H-benzo[e][1,4]diazepin-3-yl)-urea] | 1100 nM
5 | CN1C(=O)C(NC(=O)Nc2ccccc2)N=C(c2ccccc2)c2ccccc21 (centres undefined) [1-(1-Methyl-2-oxo-5-phenyl-2,3-dihydro-1H-benzo[e][1,4]diazepin-3-yl)-3-phenyl-urea] | 32 nM
6 | CCN(CC)CC(=O)OCCN1C(=O)C(NC(=O)Nc2cccc(C)c2)N=C(c2ccccc2)c2ccccc21 (centres undefined) [Diethylamino-acetic acid 2-[2-oxo-5-phenyl-3-(3-m-tolyl-ureido)-2,3-dihydro-benzo[e][1,4]diazepin-1-yl]-ethyl ester] | 5.6 nM
7 | O=C(Nc1ccc(Cl)cc1)N[C@@H]1N=C(c2ccccc2)c2ccccc2N(CC(=O)N2CCCC2)C1=O | 1.4 nM
8 | CCN(CC)C(=O)C(C)N1C(=O)C(NC(=O)Nc2ccc(Cl)cc2)N=C(c2ccccc2)c2ccccc21 (centres undefined) [2-{3-[3-(4-Chloro-phenyl)-ureido]-2-oxo-5-phenyl-2,3-dihydro-benzo[e][1,4]diazepin-1-yl}-N,N-diethyl-propionamide] | 22 nM
9 | COc1cccc(NC(=O)NC2N=C(c3ccccc3)c3ccccc3N(CC(=O)N3CCCC3)C2=O)c1 (centres undefined) [1-(3-Methoxy-phenyl)-3-[2-oxo-1-(2-oxo-2-pyrrolidin-1-yl-ethyl)-5-phenyl-2,3-dihydro-1H-benzo[e][1,4]diazepin-3-yl]-urea] | 0.24 nM
10 | O=C(Nc1ccc(Cl)cc1)NC1N=C(c2ccccc2)c2ccccc2N(CC(=O)N2CCCC2)C1=O (centres undefined) | 1.6 nM
11 | CN1C(=O)C(NC(=O)Nc2cccc(-c3ccccc3)c2)N=C(c2ccccc2)c2ccccc21 (centres undefined) [1-Biphenyl-3-yl-3-(1-methyl-2-oxo-5-phenyl-2,3-dihydro-1H-benzo[e][1,4]diazepin-3-yl)-urea] | 112 nM
12 | CN1C(=O)C(NC(=O)Nc2ccc(C(=O)O)cc2)N=C(c2ccccc2)c2ccccc21 (centres undefined) [4-[3-(1-Methyl-2-oxo-5-phenyl-2,3-dihydro-1H-benzo[e][1,4]diazepin-3-yl)-ureido]-benzoic acid] | > 100 nM
13 | CCNC(=O)CN1C(=O)C(NC(=O)Nc2ccc(Cl)cc2)N=C(c2ccccc2)c2ccccc21 (centres undefined) [2-{3-[3-(4-Chloro-phenyl)-ureido]-2-oxo-5-phenyl-2,3-dihydro-benzo[e][1,4]diazepin-1-yl}-N-ethyl-acetamide] | 11 nM
14 | Cc1cccc(NC(=O)NC2N=C(c3ccccc3)c3ccccc3N(CC(=O)Nc3ccncc3)C2=O)c1 (centres undefined) [2-[2-Oxo-5-phenyl-3-(3-m-tolyl-ureido)-2,3-dihydro-benzo[e][1,4]diazepin-1-yl]-N-pyridin-4-yl-acetamide] | 48 nM
15 | COc1cccc(NC(=O)NC2N=C(c3ccccc3)c3ccccc3N(CCC(=O)O)C2=O)c1 (centres undefined) [3-{3-[3-(3-Methoxy-phenyl)-ureido]-2-oxo-5-phenyl-2,3-dihydro-benzo[e][1,4]diazepin-1-yl}-propionic acid] | 250 nM
16 | CN1C(=O)C(NC(=O)Nc2ccc([N+](=O)[O-])cc2)N=C(c2ccccc2)c2ccccc21 (centres undefined) [1-(1-Methyl-2-oxo-5-phenyl-2,3-dihydro-1H-benzo[e][1,4]diazepin-3-yl)-3-(4-nitro-phenyl)-urea] | 46 nM
17 | CN1C(=O)C(NC(=O)Nc2cccc([N+](=O)[O-])c2)N=C(c2ccccc2)c2ccccc21 (centres undefined) [1-(1-Methyl-2-oxo-5-phenyl-2,3-dihydro-1H-benzo[e][1,4]diazepin-3-yl)-3-(3-nitro-phenyl)-urea] | 11 nM
18 | COc1cccc(NC(=O)NC2N=C(c3ccccc3)c3ccccc3N(C)C2=O)c1 (centres undefined) [1-(3-Methoxy-phenyl)-3-(1-methyl-2-oxo-5-phenyl-2,3-dihydro-1H-benzo[e][1,4]diazepin-3-yl)-urea] | 3 nM
19 | CN1C(=O)C(NC(=O)NC(C)(C)C)N=C(c2ccccc2)c2ccccc21 (centres undefined) [1-tert-Butyl-3-(1-methyl-2-oxo-5-phenyl-2,3-dihydro-1H-benzo[e][1,4]diazepin-3-yl)-urea] | 38000 nM
20 | CN1C(=O)C(NC(=O)NCc2ccccc2)N=C(c2ccccc2)c2ccccc21 (centres undefined) [1-Benzyl-3-(1-methyl-2-oxo-5-phenyl-2,3-dihydro-1H-benzo[e][1,4]diazepin-3-yl)-urea] | 860 nM
21 | CCN(CC)C[C@H](O)CN1C(=O)C(NC(=O)Nc2ccc(Cl)cc2)N=C(c2ccccc2)c2ccccc21 (some centres undefined) [1-(4-Chloro-phenyl)-3-[1-(3-diethylamino-2-hydroxy-propyl)-2-oxo-5-phenyl-2,3-dihydro-1H-benzo[e][1,4]diazepin-3-yl]-urea] | 410 nM
22 | CN1C(=O)[C@H](NC(=O)Nc2cccc(Br)c2)N=C(c2ccccc2)c2ccccc21 | 3.8 nM
23 | CN1C(=O)C(NC(=O)Nc2ccc(Cl)cc2)N=C(c2ccccc2)c2ccccc21 [(R)-1-(4-Chloro-phenyl)-3-(1-methyl-2-oxo-5-phenyl-2,3-dihydro-1H-benzo[e][1,4]diazepin-3-yl)-urea] | 81 nM
24 | CC(=O)c1cccc(NC(=O)NC2N=C(c3ccccc3)c3ccccc3N(C)C2=O)c1 (centres undefined) [1-(3-Acetyl-phenyl)-3-(1-methyl-2-oxo-5-phenyl-2,3-dihydro-1H-benzo[e][1,4]diazepin-3-yl)-urea] | 4.8 nM
